One test has as its target T1, AR (Rattus norvegicus, UniProt P15207).
T1 sequence (P15207 1-902): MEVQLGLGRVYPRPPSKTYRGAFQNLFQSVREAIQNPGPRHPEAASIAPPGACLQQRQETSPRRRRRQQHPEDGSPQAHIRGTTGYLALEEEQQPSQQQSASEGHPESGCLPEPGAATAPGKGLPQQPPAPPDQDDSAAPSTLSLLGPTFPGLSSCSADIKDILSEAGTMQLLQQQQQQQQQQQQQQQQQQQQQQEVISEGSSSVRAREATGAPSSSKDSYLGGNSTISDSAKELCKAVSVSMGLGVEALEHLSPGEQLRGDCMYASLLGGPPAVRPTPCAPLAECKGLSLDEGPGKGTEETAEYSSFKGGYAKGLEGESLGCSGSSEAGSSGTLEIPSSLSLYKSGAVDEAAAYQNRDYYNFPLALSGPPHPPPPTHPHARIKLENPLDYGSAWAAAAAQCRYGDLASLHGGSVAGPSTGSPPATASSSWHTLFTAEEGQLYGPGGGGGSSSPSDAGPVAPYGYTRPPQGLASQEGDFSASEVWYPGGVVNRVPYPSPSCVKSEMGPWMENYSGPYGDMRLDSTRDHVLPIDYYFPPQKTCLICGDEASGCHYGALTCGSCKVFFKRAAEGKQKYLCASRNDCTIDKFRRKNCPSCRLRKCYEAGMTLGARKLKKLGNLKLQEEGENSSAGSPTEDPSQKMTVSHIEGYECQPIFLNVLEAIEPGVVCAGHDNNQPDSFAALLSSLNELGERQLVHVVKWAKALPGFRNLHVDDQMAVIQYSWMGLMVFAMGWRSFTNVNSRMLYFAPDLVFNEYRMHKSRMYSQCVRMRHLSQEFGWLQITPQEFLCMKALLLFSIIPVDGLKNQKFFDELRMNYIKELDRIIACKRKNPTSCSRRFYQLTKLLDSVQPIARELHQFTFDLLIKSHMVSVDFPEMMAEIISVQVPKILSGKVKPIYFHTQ
The text has this: The activity of compounds of the present invention as AR agonists was investigated in an immature male rat model, a recognized test of anabolic effects in muscle and sustaining effects in sex organs for a given compound, as described in L. G. Hershberger et al., Proc. Soc. […] Biol. Med., 83, 175 (1953); B. L. Beyler et al, “Methods for evaluating anabolic and catabolic agents in laboratory animals”, J. Amer. Med. Women's Ass., 23, 708 (1968); H. Fukuda et al., “Investigations of the levator ani muscle as an anabolic steroid assay”, Nago Dai. […] Nem. 14, 84 (1966) the disclosures of which are herein incorporated by reference.
The basis of this assay lies in the well-defined action of androgenic agents on the maintenance and growth of muscle tissues and sexual accessory organs in animals and man. […] J. Anat. […] Ital. Biol. Sper. […] II. […] Ital. Biol. Sper. 42, 1600 (1966); A. Boris et al., Steroids 15, 61 (1970). As described above, the effects of androgens on maintenance of male sexual accessory organs, such as the prostate and seminal vesicles, is well described. Castration results in rapid involution and atrophy of the prostate and seminal vesicles. This effect can be reversed by exogenous addition of androgens. […]

The next test addresses wild type AR. As to conditions: read-out: Kd for [3H]-DHT; MDA 453 cells, Scatchard analysis. How it is done: For the whole-cell binding assay, human LNCaP cells (T877A mutant AR) or MDA 453 (wild type AR) in 96-well microtiter plates containing RPMI 1640 or DMEM supplemented with 10% charcoal stripped CA-FBS (Cocaleco Biologicals) respectively, were incubated at 37° C. to remove any endogenous ligand that might be complexed with the receptor in the cells.
For the saturation analysis, the difference between the total binding and the non-specific binding, was defined as specific binding. […] See e.g. D. Rodbard, Mathematics and statistics of ligand assays: an illustrated guide: In: J. Langon and J. J. Clapp, eds., Ligand Assay, Masson Publishing U.S.A., Inc., New York, pp. 45-99, (1981), the disclosure of which is herein incorporated by reference.
Two replicates were used for each sample.

What is called pKd is −log10 of the Kd, conventionally taken in molar units.

pKd: −log10 of the molar value.

`CCC(=O)O[C@H]1CC[C@H]2[C@@H]3CCC4=CC(=O)CC[C@]4(C)[C@H]3CC[C@]12C` [TP, testosterone propionate]: the “potency relative to free T” value on AR (TP versus free T) is reported as 10-30 fold. Moreover, on AR (immature castrated rats), the “EC50 (increase in organ weight)” value was roughly 0.03 mg.
As for “tritiated dihydrotestosterone [[^3H]-DHT]”, the pKd at wild type AR was 9.15.

Values taken from US7632858B2 (priority 2002, dated 2009).
